Measured values taken from US20060247184A1, “Treatment and prophylaxis of diseases and infections pigs and poultry” (Eco Animal Health Ltd., priority 2000, published 2006).
Values after ≈ are worked out from the molar mass of the structure shown. Like-named read-outs stand apart in the source and are kept apart here.

Columns and labels:
[1] = test system: Brachyspira hyodysenteriae; assay: Sensitivity (MIC) for AIVLOSIN and chlortetracycline, alone and in combination; assay type: cell-based; details: for MIC: Brachyspira hyodysenteriae, alone; for MIC of each for combination of CTC + AIV: in combination CTC + AIV
Excerpt: 4. Sensitivity of Bacteria for AIVLOSIN and Tetracyclines, Alone and in Combination.
Sensitivity is expressed as the lowest concentration of an antibiotic (in mcg/ml) that inhibits the growth of the test bacteria (MIC=Minimum Inhibitory Concentration).
Brachyspira Hyodysenteriae

Mycoplasma Synoviae = assay: Sensitivity (MIC) for AIVLOSIN and tetracyclines, alone and in combination; assay type: cell-based; details: for MIC: Mycoplasmopsis synoviae, alone; for MIC of each for combination CTC + AIV: in combination CTC + AIV; for MIC of each for combination OTC + AIV: in combination OTC + AIV
[2] = test system: Brachyspira hyodysenteriae; assay: Swine dysentery animal disease model, prevention of clinical disease; assay type: in vivo, pigs
[3] = test system: Brachyspira hyodysenteriae; assay: Swine dysentery, treatment of clinical outbreak; assay type: in vivo, pigs
[4] = test system: Brachyspira hyodysenteriae; assay: In vitro MIC against Brachyspira hyodysenteriae strains (Table 2); assay type: cell-based
Clostridium perfringens = assay type: cell-based

CN(C)[C@@H]1C(O)=C(C(N)=O)C(=O)[C@@]2(O)C(O)=C3C(=O)c4c(O)ccc(Cl)c4[C@@](C)(O)[C@H]3C[C@@H]12 [CTC, chlortetracycline]
MIC ([1]; strain AF6): 0.5 mg/L
MIC ([1]; strain P265-9-97): 16 mg/L
MIC ([1]; strain P268-9-97): 16 mg/L
MIC ([1]; strain P578-6-97): 16 mg/L
MIC of each for combination of CTC + AIV ([1]; strain AF6): 0.125 mg/L
MIC of each for combination of CTC + AIV ([1]; strain P265-9-97): 4.0 mg/L
MIC of each for combination of CTC + AIV ([1]; strain P268-9-97): 8.0 mg/L
MIC of each for combination of CTC + AIV ([1]; strain P578-6-97): 8.0 mg/L
MIC (Mycoplasma Synoviae; strain 173): 0.78 mg/L
MIC (Mycoplasma Synoviae; strain 185): 0.78 mg/L
MIC (Mycoplasma Synoviae; strain 211): 0.39 mg/L
MIC (Mycoplasma Synoviae; strain 312): 3.12 mg/L
MIC (Mycoplasma Synoviae; strain wvu 1835): 0.39 mg/L
MIC of each for combination CTC + AIV (Mycoplasma Synoviae; strain 173): 0.1 mg/L
MIC of each for combination CTC + AIV (Mycoplasma Synoviae; strain 185): 0.1 mg/L
MIC of each for combination CTC + AIV (Mycoplasma Synoviae; strain 211): 0.1 mg/L
MIC of each for combination CTC + AIV (Mycoplasma Synoviae; strain 312): 0.1 mg/L
MIC of each for combination CTC + AIV (Mycoplasma Synoviae; strain wvu 1835): 0.1 mg/L

CN(C)[C@@H]1C(O)=C(C(N)=O)C(=O)[C@@]2(O)C(O)=C3C(=O)c4c(O)cccc4[C@@](C)(O)[C@H]3[C@H](O)[C@@H]12 [OTC, oxytetracycline]
MIC (Mycoplasma Synoviae; strain 173): 0.39 mg/L
MIC (Mycoplasma Synoviae; strain 185): 0.2 mg/L
MIC (Mycoplasma Synoviae; strain 211): 0.39 mg/L
MIC (Mycoplasma Synoviae; strain 312): 0.78 mg/L
MIC (Mycoplasma Synoviae; strain wvu 1835): 0.39 mg/L
MIC of each for combination OTC + AIV (Mycoplasma Synoviae; strain 173): 0.1 mg/L
MIC of each for combination OTC + AIV (Mycoplasma Synoviae; strain 185): 0.1 mg/L
MIC of each for combination OTC + AIV (Mycoplasma Synoviae; strain 211): 0.1 mg/L
MIC of each for combination OTC + AIV (Mycoplasma Synoviae; strain 312): 0.1 mg/L
MIC of each for combination OTC + AIV (Mycoplasma Synoviae; strain wvu 1835): 0.1 mg/L

C=C[C@]1(C)C[C@@H](OC(=O)CSCCN(CC)CC)[C@]2(C)[C@H](C)CC[C@]3(CCC(=O)[C@H]32)[C@@H](C)[C@@H]1O [Tiamulin, tiamulin]
Period for which the drug needs to be provided to prevent an outbreak ([2]; artificially infected pigs): whole period in which the pigs are at risk
Mean days to clear B.Hyo ([3]; 100 ppm 10 days): 5.8 days
Mean days to recovery ([3]; 100 ppm 10 days): 4.4 days
Mean score at start ([3]; 100 ppm 10 days, clinical scoring 0 = normal, 6 = moribund, baseline): 4.0

CC[C@H]1OC(=O)C[C@@H](O)[C@H](C)[C@@H](O[C@@H]2O[C@H](C)[C@@H](O[C@H]3C[C@@](C)(O)[C@@H](O)[C@H](C)O3)[C@H](N(C)C)[C@H]2O)[C@@H](CC=O)C[C@@H](C)C(=O)/C=C/C(C)=C/[C@@H]1CO[C@@H]1O[C@H](C)[C@@H](O)[C@@H](OC)[C@H]1OC [Tylosin, tylosin]
MIC ([4]; strain AF 6/80): 6.25 mg/L (≈ 6.82 µM)
MIC ([4]; strain PI8A): > 200 mg/L
MIC ([4]; strain PO268-07.98): > 200 mg/L
Period for which the drug needs to be provided to prevent an outbreak ([2]; pig, in vivo): ≥ 21 days
Mean days to clear B.Hyo ([3]; 100 ppm 21 days): 3.0 days
Mean days to recovery ([3]; 100 ppm 21 days): 2.1 days
Mean score at start ([3]; 100 ppm 21 days): 3.7

zinc bacitracin
MIC (Clostridium perfringens; strain 378): 3.125 mg/L
MIC (Clostridium perfringens; strain 389): 1.56 mg/L
MIC (Clostridium perfringens; strain 392): 1.56 mg/L
MIC (Clostridium perfringens; strain 395): 3.125 mg/L
MIC (Clostridium perfringens; strain 410): 3.125 mg/L
MIC (Clostridium perfringens; strain 412): 6.25 mg/L
MIC (Clostridium perfringens; strain 413): 6.25 mg/L
